Experimental data reported in US20260116921A1, “PEPTIDE INHIBITORS OF INTERLEUKIN-23 RECEPTOR AND THEIR USE TO TREAT INFLAMMATORY DISEASES” (priority 2018, published 2026).
Bridge positions count the residues as written; N and C are the ends. Square brackets hold non-standard residues; d marks the D form. Peptide text beside a SMILES is read from it. Trp(7-Me) = Cc1cccc2c(C[C@H](N)C(=O)O)c[nH]c12; 2Nal = N[C@@H](Cc1ccc2ccccc2c1)C(=O)O; AEF = NCCOc1ccc(C[C@H](N)C(=O)O)cc1; Cit = NC(=O)NCCC[C@H](N)C(=O)O; αMeL = CC(C)C[C@](C)(N)C(=O)O; Pen = CC(C)(S)[C@H](N)C(=O)O; βAla = NCCC(=O)O

Legend:
NK cells = assay: NK cell based assay (IL-23/IL-18-induced IFNγ, Quantikine ELISA); conditions: human primary NK cells, IL-23 at EC50 to EC75 + IL-18 10 ng/mL, IFNγ after 20 to 24 hours
Description: killer (NK) cells, purified from human peripheral blood of healthy donors by negative selection (Miltenyi Biotech, Cat #130-092-657), were cultured in complete media (RPMI 1640 containing […], L-glutamine and penicillin-streptomycin) in the presence of IL-2 (RnD, Cat #202-IL-010/CF) at 25 ng/mL. After 7 days, cells were centrifuged, and resuspended in complete media at IE6 cells/mL. […] After 20 to 24 hours, IFNγ in the supernatant was quantified using Quantikine ELISA (RnD, Cat #DIF50).

in vitro [1] = conditions: human, 20% fecal homogenate (supernatant), anaerobic, pH 6.8
in vitro [2] = conditions: both, SD, rat
Description: Peptides of interest (20 μM) were incubated with pre-warmed rat plasma (SD rat, mixed gender pooled, EDTA, filtered through 0.22 μm, BioreclamationIVT) at 37° C. […] Quenched samples were stored at 4° C. until the end of the experiment and centrifuged at 4,000 rpm for 10 minutes. The supernatant were diluted 1:1 with deionized water and analyzed using LC-MS. Percentage remaining at each time point was calculated based on the peak area ratio (analyte over internal standard) relative to the initial level at time zero. Half-lives were calculated by fitting to a first-order exponential decay equation using GraphPad.

IL-23R = molecular target: T1, IL-23R (Homo sapiens, UniProt Q5VWK5); assay: DB cells IL23R pSTAT3 cell assay (pStat3 HTRF); assay type: cell-based; conditions: Table E3; DB cells, IL-23 0.5 nM, 30 minutes at 37° C.; read-out: pStat3 HTRF (IC50)
T1 sequence (Q5VWK5 24-629): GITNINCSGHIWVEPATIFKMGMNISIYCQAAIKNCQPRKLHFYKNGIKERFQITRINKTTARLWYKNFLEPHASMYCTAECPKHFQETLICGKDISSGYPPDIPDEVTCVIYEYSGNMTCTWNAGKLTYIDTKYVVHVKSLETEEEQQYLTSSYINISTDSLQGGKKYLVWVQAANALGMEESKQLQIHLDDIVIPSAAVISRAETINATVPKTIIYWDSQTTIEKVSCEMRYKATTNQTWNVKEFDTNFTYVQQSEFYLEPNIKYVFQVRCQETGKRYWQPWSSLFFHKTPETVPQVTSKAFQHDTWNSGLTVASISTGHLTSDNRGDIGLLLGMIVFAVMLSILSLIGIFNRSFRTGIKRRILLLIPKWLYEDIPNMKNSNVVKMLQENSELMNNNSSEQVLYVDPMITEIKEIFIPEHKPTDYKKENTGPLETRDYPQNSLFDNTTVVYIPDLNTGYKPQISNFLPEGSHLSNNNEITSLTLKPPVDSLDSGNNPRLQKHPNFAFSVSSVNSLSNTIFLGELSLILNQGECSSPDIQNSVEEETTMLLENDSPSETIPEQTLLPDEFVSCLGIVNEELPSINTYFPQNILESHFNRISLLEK
Summary of the method: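 DB cells (5×10E5/well, RPMI-1640 + 10% FBS) stimulated with 0.5 nM final IL-23 plus serially diluted test peptides for 30 min at 37 °C, 5% CO2. Phospho-STAT3 (Tyr705) in lysates measured by HTRF using a two-plate protocol.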

in vitro [3] = conditions: cynomolgus monkey, 20% fecal homogenate (supernatant), anaerobic, pH 6.8
Description: Fecal homogenate (20%) was prepared by adding 4 mL of growth medium (1 liter contains 2 g peptone water powder, 2 g yeast extract, 0.1 g NaCl, 0.04 g KH2PO4, 0.01 g CaCl2·6H2O, 0.01 g MgSO4·7H2O, 2 mL Tween 80, 0.5 g bile salts, 0.5 g L-cysteine HCl, 2 g NaHCO3, and 10 μL Vitamin K, pH adjusted to 6.8, and sterilized by filtration through a 0.22 μm filter) to every gram of feces (pooled freshly collected human or cynomolgus monkey feces). The suspension was vortexed to break up large clumps, and homogenized using a bead mill homogenizer. Centrifuged the homogenate at 2800×g for 15 min. The supernatant is taken out and used for incubations. DMSO stocks (10 mM) were first prepared for the test compounds. Incubations were performed in an anaerobic chamber conditioned at 37° C. Aliquots of the DMSO solutions were dosed into 1.0 mL aliquots of 20% fecal homogenate, which are pre-warmed to 37° C. The final test compound concentration was 20 μM. At each timepoint (0, 20 min, 1, 3, 6, or 24 hours), 100 μL aliquot of each incubation mixture is taken out and added to separate tubes containing 300 μL of 50% acetonitrile/50% methanol and an internal standard to terminate the reaction. Samples were taken out of the anaerobic chamber and stored at 4° C. until the end of the experiment. After the final timepoint is sampled, the tubes were mixed and then centrifuged at 3,000 rpm for 10 minutes. Aliquots of the supernatant were removed, diluted 1:1 into distilled water containing 0.1% formic acid, and analyzed by LC/MS/MS. Percent remaining at each timepoint was calculated based on the peak area response ratio of test to compound to internal standard. Time 0 was set to 100%, and all later timepoints were calculated relative to time 0. Half-lives were calculated by fitting to a first-order exponential decay equation using Graphpad or Excel.

Compound | IC50 (NK cells) | half-life at 20 μM (in vitro [1]) | half-life at 20 μM (in vitro [2]; plasma (EDTA, pooled)) | IC50 (IL-23R) | half-life at 20 μM (in vitro [3]) | half-life at 20 μM (in vitro [2]; plasma (EDTA))
CC(=O)NCCCC[C@@H]1NC(=O)[C@H](Cc2c[nH]c3c(C)cccc23)NC(=O)[C@H]([C@@H](C)O)NC(=O)[C@H](CC(N)=O)NC(=O)[C@@H](NC(C)=O)C(C)(C)SSC(C)(C)[C@@H](C(=O)N[C@@H](Cc2ccc(OCCN)cc2)C(=O)N[C@@H](Cc2ccc3ccccc3c2)C(=O)N[C@@](C)(CCCCN)C(=O)N[C@@H](CCCCNC(C)=O)C(=O)N[C@@H](CC(N)=O)C(=O)N[C@H](CCCCN)C(N)=O)NC1=O [SEQ ID No. 252, Ac-[Pen]-NT-[W(7-Me)]-[Lys(Ac)]-[Pen]-Phe[4-(2-aminoethoxy)]-[2-Nal]-[a-MeLys]-[Lys(Ac)]-N-[(D)Lys]-NH2] | < 10 nM | > 24 h | > 24 h | < 1 nM | > 24 h | –
CC(=O)NCCCC[C@H](NC(=O)[C@](C)(CCCCN)NC(=O)[C@H](Cc1ccc2ccccc2c1)NC(=O)[C@H](Cc1ccc(OCCN)cc1)NC(=O)[C@H]1NC(=O)[C@H](CCC(N)=O)NC(=O)[C@H](Cc2c[nH]c3c(C)cccc23)NC(=O)[C@H]([C@@H](C)O)NC(=O)[C@H](CC(N)=O)NC(=O)[C@@H](NC(C)=O)C(C)(C)SSC1(C)C)C(=O)N[C@@H](CC(N)=O)C(=O)NCCC(N)=O [compound 202] | < 10 nM | – | – | 1 to 10 nM | 12 h | –
CC(=O)NCCCC[C@H](NC(=O)[C@](C)(CC(C)C)NC(=O)[C@H](Cc1ccc2ccccc2c1)NC(=O)[C@H](Cc1ccc(OCCN)cc1)NC(=O)[C@H]1NC(=O)[C@H](CCC(N)=O)NC(=O)[C@H](Cc2c[nH]c3c(C)cccc23)NC(=O)[C@H]([C@@H](C)O)NC(=O)[C@H](CC(N)=O)NC(=O)[C@@H](NC(C)=O)C(C)(C)SSC1(C)C)C(=O)NCC(=O)NCCC(N)=O [compound 205] | 11 to 100 nM | > 24 h | – | 1 to 10 nM | > 24 h | 1 h
CC(=O)NCCCC[C@H](NC(=O)[C@](C)(CC(C)C)NC(=O)[C@H](Cc1ccc2ccccc2c1)NC(=O)[C@H](Cc1ccc(OCCN)cc1)NC(=O)[C@H]1NC(=O)[C@H](CCC(N)=O)NC(=O)[C@H](Cc2c[nH]c3c(C)cccc23)NC(=O)[C@H]([C@@H](C)O)NC(=O)[C@H](CC(N)=O)NC(=O)[C@@H](NC(C)=O)C(C)(C)SSC1(C)C)C(=O)N[C@@H](CCCNC(N)=O)C(=O)NCCC(N)=O [compound 206] | 11 to 100 nM | 20 h | – | 10 to 100 nM | > 24 h | –
CC(=O)NCCCC[C@H](NC(=O)[C@](C)(CC(C)C)NC(=O)[C@H](Cc1ccc2ccccc2c1)NC(=O)[C@H](Cc1ccc(OCCN)cc1)NC(=O)[C@H]1NC(=O)[C@H](CCC(N)=O)NC(=O)[C@H](Cc2c[nH]c3c(C)cccc23)NC(=O)[C@H]([C@@H](C)O)NC(=O)[C@H](CC(N)=O)NC(=O)[C@@H](NC(C)=O)C(C)(C)SSC1(C)C)C(=O)N[C@@H](C)C(=O)NCCC(N)=O [compound 207] | < 10 nM | > 24 h | – | 1 to 10 nM | > 24 h | 2 h
CC(=O)NCCCC[C@H](NC(=O)[C@](C)(CC(C)C)NC(=O)[C@H](Cc1ccc2ccccc2c1)NC(=O)[C@H](Cc1ccc(OCCN)cc1)NC(=O)[C@H]1NC(=O)[C@H](CCC(N)=O)NC(=O)[C@H](Cc2c[nH]c3c(C)cccc23)NC(=O)[C@H]([C@@H](C)O)NC(=O)[C@H](CC(N)=O)NC(=O)[C@@H](NC(C)=O)C(C)(C)SSC1(C)C)C(=O)N[C@@H](CC(C)C)C(=O)NCCC(N)=O [compound 208] | < 10 nM | > 24 h | – | 1 to 10 nM | > 24 h | 2 h
CC[C@H](C)[C@H](NC(=O)[C@H](CCCCNC(C)=O)NC(=O)[C@](C)(CC(C)C)NC(=O)[C@H](Cc1ccc2ccccc2c1)NC(=O)[C@H](Cc1ccc(OCCN)cc1)NC(=O)[C@H]1NC(=O)[C@H](CCC(N)=O)NC(=O)[C@H](Cc2c[nH]c3c(C)cccc23)NC(=O)[C@H]([C@@H](C)O)NC(=O)[C@H](CC(N)=O)NC(=O)[C@@H](NC(C)=O)C(C)(C)SSC1(C)C)C(=O)NCCC(N)=O [compound 216] | 101 to 500 nM | > 24 h | – | 10 to 100 nM | > 24 h | 13 h
CC(=O)NCCCC[C@H](NC(=O)[C@](C)(CC(C)C)NC(=O)[C@H](Cc1ccc2ccccc2c1)NC(=O)[C@H](Cc1ccc(OCCN)cc1)NC(=O)[C@H]1NC(=O)[C@H](CCC(N)=O)NC(=O)[C@H](Cc2c[nH]c3c(C)cccc23)NC(=O)[C@H]([C@@H](C)O)NC(=O)[C@H](CC(N)=O)NC(=O)[C@@H](NC(C)=O)C(C)(C)SSC1(C)C)C(=O)N[C@H](C(=O)NCCC(N)=O)[C@@H](C)O [compound 217] | 11 to 100 nM | > 24 h | – | 1 to 10 nM | > 24 h | 2 h
CC(=O)NCCCC[C@H](NC(=O)[C@](C)(CC(C)C)NC(=O)[C@H](Cc1ccc2ccccc2c1)NC(=O)[C@H](Cc1ccc(OCCN)cc1)NC(=O)[C@H]1NC(=O)[C@H](CCC(N)=O)NC(=O)[C@H](Cc2c[nH]c3c(C)cccc23)NC(=O)[C@H]([C@@H](C)O)NC(=O)[C@H](CC(N)=O)NC(=O)[C@@H](NC(C)=O)C(C)(C)SSC1(C)C)C(=O)N(C)[C@@H](C)C(=O)NCCC(N)=O [compound 223] | < 10 nM | > 24 h | – | > 100 nM | > 24 h | 9 h
CC(=O)NCCCC[C@H](NC(=O)[C@](C)(CC(C)C)NC(=O)[C@H](Cc1ccc2ccccc2c1)NC(=O)[C@H](Cc1ccc(OCCN)cc1)NC(=O)[C@H]1NC(=O)[C@H](CCC(N)=O)NC(=O)[C@H](Cc2c[nH]c3c(C)cccc23)NC(=O)[C@H]([C@@H](C)O)NC(=O)[C@H](CC(N)=O)NC(=O)[C@@H](NC(C)=O)C(C)(C)SSC1(C)C)C(=O)N(C)CC(=O)NCCC(N)=O [compound 224] | 101 to 500 nM | > 24 h | – | > 100 nM | > 24 h | –
CC(=O)NCCCC[C@H](NC(=O)[C@](C)(CC(C)C)NC(=O)[C@H](Cc1ccc2ccccc2c1)NC(=O)[C@H](Cc1ccc(OCCN)cc1)NC(=O)[C@H]1NC(=O)[C@H](CCC(N)=O)NC(=O)[C@H](Cc2c[nH]c3c(C)cccc23)NC(=O)[C@H]([C@@H](C)O)NC(=O)[C@H](CC(N)=O)NC(=O)[C@@H](NC(C)=O)C(C)(C)SSC1(C)C)C(=O)N[C@@](C)(CC(C)C)C(=O)NCCC(N)=O [compound 225] | 101 to 500 nM | > 24 h | – | 10 to 100 nM | > 24 h | –
CC(=O)NCCCC[C@H](NC(=O)[C@](C)(CC(C)C)NC(=O)[C@H](Cc1ccc2ccccc2c1)NC(=O)[C@H](Cc1ccc(OCCN)cc1)NC(=O)[C@H]1NC(=O)[C@H](CCCNC(N)=O)NC(=O)[C@H](Cc2c[nH]c3c(C)cccc23)NC(=O)[C@H]([C@@H](C)O)NC(=O)[C@H](CC(N)=O)NC(=O)[C@@H](NC(C)=O)C(C)(C)SSC1(C)C)C(=O)N[C@@H](CC(N)=O)C(=O)NCCC(N)=O [compound 227] (Ac-[Pen]NT[Trp(7-Me)][Cit][Pen][AEF][2Nal][αMeL]K(Ac)N[βAla]-NH2; disulfide 1-6) | < 10 nM | – | – | < 1 nM | – | –
